{"source": "ChEMBL document CHEMBL4118098", "about": "“Discovery of DS28120313 as a potent orally active hepcidin production inhibitor: Design and optimization of novel 4,6-disubstituted indazole derivatives” (Bioorg Med Chem Lett, 2017)", "key": {"[1]": {"target": "Casein kinase I isoform gamma-3 (Homo sapiens) (UniProt Q9Y6M4)", "sequence (Q9Y6M4 whole entry, looked up, canonical isoform)": "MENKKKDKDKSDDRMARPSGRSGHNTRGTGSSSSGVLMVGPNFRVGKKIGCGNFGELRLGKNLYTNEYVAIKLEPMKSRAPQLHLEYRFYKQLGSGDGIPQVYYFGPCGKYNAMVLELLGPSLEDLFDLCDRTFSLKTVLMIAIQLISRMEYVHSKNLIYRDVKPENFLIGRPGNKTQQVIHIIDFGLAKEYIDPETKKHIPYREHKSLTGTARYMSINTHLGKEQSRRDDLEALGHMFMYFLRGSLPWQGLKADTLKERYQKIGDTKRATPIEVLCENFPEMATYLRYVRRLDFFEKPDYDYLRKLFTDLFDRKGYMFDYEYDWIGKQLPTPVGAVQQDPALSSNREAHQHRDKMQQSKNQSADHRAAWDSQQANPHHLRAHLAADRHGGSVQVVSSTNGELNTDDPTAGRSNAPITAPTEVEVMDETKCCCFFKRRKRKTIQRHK", "assay": "Inhibition of CK1-gamma3 (unknown origin) at 0.45 uM relative to control"}, "[2]": {"target": "PAS domain-containing serine/threonine-protein kinase (Homo sapiens) (UniProt Q96RG2)", "assay": "Inhibition of PASK (unknown origin) at 0.45 uM relative to control"}, "[3]": {"target": "T1, Protein kinase C iota type (Homo sapiens) (UniProt P41743)", "T1 sequence (whole entry)": "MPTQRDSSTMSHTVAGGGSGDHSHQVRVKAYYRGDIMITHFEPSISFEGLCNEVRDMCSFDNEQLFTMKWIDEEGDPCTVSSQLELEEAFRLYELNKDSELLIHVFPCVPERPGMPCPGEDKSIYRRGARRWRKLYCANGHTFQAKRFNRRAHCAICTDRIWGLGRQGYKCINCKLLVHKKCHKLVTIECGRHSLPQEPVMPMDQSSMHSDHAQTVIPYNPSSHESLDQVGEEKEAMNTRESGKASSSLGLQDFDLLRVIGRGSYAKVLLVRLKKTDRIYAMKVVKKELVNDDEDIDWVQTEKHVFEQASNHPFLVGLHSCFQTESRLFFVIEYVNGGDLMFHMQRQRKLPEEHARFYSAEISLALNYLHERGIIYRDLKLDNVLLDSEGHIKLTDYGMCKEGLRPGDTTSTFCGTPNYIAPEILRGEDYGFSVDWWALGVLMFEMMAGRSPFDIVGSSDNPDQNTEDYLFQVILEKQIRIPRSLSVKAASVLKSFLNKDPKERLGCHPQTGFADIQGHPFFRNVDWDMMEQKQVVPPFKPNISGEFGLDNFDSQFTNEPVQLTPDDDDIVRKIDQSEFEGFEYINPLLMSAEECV", "assay": "Inhibition of PKC-iota (unknown origin) at 0.45 uM relative to control"}, "[4]": {"target": "Serine/threonine-protein kinase DCLK2 (Homo sapiens) (UniProt Q8N568)", "assay": "Inhibition of DCAMKL2 (unknown origin) at 0.19 uM relative to control"}, "[5]": {"target": "Macrophage colony-stimulating factor 1 receptor (Homo sapiens) (UniProt P07333)", "sequence (P07333 whole entry)": "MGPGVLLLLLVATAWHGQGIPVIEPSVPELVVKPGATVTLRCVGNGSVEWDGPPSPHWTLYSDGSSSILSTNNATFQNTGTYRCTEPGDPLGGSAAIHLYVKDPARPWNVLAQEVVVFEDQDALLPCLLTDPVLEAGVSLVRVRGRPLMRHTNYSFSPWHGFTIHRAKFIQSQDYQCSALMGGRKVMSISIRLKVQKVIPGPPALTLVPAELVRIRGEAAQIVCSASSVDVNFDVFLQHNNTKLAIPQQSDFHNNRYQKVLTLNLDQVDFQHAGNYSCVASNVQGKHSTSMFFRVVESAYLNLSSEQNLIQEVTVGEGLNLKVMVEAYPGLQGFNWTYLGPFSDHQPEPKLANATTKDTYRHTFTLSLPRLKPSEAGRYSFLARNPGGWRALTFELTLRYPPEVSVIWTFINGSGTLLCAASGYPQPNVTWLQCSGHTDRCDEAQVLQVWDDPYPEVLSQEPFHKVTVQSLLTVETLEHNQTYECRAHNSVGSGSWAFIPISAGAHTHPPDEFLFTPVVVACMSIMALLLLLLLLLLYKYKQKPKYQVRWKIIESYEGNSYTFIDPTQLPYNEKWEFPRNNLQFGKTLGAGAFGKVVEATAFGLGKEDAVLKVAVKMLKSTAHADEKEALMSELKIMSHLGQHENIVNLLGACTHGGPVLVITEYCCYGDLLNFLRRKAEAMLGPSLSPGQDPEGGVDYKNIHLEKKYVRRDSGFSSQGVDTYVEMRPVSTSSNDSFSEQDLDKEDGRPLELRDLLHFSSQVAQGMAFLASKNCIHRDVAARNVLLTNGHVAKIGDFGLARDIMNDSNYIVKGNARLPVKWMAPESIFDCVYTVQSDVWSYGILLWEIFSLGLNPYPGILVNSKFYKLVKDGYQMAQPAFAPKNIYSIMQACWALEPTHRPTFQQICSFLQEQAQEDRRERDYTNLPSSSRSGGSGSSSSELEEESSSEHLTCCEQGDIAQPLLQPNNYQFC", "assay": "Inhibition of FMS (unknown origin) at 0.19 uM relative to control"}, "[6]": {"tested_on": "Epidermal growth factor receptor (Homo sapiens), P00533 [L858R,T790M]", "assay": "Inhibition of EGFR T790M/L858R double mutant (unknown origin) at 0.19 uM relative to control"}, "[7]": {"target": "Fibroblast growth factor receptor 4 (Homo sapiens) (UniProt P22455)", "sequence (P22455 22-802 limits assumed)": "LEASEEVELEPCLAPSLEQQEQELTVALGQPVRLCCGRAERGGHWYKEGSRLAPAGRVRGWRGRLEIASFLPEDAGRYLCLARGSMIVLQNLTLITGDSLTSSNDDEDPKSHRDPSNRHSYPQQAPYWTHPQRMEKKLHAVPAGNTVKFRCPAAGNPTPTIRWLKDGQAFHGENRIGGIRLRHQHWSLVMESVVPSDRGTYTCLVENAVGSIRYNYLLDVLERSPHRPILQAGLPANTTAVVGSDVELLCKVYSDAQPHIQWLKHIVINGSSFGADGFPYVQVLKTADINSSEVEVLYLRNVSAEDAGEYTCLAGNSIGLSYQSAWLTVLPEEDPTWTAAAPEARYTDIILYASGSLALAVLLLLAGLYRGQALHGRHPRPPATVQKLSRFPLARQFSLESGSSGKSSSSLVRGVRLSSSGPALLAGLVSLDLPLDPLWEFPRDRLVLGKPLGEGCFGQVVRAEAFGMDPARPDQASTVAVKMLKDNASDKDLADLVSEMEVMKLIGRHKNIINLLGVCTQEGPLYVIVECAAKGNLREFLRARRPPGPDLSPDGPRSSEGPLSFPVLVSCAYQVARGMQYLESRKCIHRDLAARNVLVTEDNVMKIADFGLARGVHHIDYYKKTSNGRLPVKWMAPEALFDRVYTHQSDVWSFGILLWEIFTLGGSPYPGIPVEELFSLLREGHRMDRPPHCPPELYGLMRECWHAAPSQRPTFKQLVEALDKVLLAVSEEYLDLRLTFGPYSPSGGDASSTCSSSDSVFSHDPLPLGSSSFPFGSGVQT", "assay": "Inhibition of FGFR4 (unknown origin) at 0.19 uM relative to control"}, "[8]": {"target": "Mitogen-activated protein kinase kinase kinase kinase 4 (Homo sapiens) (UniProt O95819)", "assay": "Inhibition of HGK (unknown origin) at 0.19 uM relative to control"}, "[9]": {"tested_on": "Proto-oncogene tyrosine-protein kinase receptor Ret (Homo sapiens), P07949 [Y791F]", "sequence (P07949 whole entry Y791F)": "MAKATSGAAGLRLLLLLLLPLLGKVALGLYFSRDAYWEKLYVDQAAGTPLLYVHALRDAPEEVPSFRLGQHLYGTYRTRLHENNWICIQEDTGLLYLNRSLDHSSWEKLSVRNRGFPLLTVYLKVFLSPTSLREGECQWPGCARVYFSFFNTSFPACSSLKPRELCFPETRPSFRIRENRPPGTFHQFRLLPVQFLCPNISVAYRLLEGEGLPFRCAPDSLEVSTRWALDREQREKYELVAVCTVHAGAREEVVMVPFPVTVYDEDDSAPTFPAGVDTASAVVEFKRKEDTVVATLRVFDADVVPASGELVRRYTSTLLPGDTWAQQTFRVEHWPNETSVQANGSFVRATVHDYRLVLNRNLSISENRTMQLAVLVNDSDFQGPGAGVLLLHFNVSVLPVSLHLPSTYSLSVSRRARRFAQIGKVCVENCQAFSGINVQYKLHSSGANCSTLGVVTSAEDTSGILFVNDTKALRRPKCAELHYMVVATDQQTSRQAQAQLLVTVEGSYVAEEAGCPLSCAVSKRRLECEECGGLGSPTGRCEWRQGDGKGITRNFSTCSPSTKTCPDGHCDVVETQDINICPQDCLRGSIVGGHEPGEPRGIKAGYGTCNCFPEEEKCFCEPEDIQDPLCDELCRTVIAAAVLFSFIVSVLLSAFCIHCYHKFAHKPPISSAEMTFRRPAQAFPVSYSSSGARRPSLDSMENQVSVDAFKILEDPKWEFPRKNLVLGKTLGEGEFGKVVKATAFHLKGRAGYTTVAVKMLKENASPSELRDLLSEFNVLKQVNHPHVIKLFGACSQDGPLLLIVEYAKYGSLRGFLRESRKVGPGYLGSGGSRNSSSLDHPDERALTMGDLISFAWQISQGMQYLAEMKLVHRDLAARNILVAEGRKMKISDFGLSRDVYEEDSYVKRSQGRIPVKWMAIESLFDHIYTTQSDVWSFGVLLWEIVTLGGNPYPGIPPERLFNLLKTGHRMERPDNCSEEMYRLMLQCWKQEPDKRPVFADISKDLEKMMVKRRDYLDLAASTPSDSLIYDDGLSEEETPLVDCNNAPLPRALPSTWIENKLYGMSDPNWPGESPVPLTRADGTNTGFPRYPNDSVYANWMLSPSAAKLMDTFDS", "assay": "Inhibition of RET Y791F mutant (unknown origin) at 0.19 uM relative to control"}, "[10]": {"target": "Serine/threonine-protein kinase 25 (Homo sapiens) (UniProt O00506)", "sequence (O00506 whole entry, looked up)": "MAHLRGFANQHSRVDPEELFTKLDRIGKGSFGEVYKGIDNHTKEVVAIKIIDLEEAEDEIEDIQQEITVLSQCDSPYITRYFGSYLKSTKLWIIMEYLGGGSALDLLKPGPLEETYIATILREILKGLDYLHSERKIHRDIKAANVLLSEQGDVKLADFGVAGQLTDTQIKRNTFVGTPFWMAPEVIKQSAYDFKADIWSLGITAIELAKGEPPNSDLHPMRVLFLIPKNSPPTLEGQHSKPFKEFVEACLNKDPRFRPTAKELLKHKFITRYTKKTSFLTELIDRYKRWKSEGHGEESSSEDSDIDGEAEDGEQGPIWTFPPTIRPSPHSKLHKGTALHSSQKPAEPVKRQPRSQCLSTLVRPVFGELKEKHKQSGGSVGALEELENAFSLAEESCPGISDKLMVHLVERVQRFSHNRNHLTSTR", "assay": "Inhibition of YSK (unknown origin) at 0.19 uM relative to control"}, "[11]": {"target": "T2, cGMP-dependent protein kinase 1 (Homo sapiens) (UniProt Q13976)", "T2 sequence (whole entry)": "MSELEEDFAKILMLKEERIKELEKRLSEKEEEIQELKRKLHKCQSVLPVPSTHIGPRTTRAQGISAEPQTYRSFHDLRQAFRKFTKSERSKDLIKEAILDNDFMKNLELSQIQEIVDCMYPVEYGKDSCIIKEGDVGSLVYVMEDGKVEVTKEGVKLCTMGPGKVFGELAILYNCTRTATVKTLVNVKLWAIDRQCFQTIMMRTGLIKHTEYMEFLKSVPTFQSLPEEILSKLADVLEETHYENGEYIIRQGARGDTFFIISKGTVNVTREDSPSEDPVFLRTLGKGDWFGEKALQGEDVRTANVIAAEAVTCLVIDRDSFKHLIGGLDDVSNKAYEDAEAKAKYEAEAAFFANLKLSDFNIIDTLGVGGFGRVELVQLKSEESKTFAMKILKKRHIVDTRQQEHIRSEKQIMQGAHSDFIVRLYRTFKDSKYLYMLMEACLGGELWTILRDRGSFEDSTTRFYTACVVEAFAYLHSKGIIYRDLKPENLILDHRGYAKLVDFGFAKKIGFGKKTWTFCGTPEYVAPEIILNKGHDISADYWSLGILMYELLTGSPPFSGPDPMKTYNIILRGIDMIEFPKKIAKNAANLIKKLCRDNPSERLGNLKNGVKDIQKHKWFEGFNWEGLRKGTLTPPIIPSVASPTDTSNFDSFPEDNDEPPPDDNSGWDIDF", "assay": "Inhibition of PKG1-beta (unknown origin) at 0.19 uM relative to control"}, "[12]": {"target": "MAP/microtubule affinity-regulating kinase 4 (Homo sapiens) (UniProt Q96L34)", "assay": "Inhibition of MARK4 (unknown origin) at 0.19 uM relative to control"}, "[13]": {"target": "Tyrosine-protein kinase BTK (Homo sapiens) (UniProt Q06187)", "assay": "Inhibition of BTK (unknown origin) at 0.19 uM relative to control"}, "[14]": {"target": "Tyrosine-protein kinase ITK/TSK (Homo sapiens) (UniProt Q08881)", "sequence (Q08881 whole entry)": "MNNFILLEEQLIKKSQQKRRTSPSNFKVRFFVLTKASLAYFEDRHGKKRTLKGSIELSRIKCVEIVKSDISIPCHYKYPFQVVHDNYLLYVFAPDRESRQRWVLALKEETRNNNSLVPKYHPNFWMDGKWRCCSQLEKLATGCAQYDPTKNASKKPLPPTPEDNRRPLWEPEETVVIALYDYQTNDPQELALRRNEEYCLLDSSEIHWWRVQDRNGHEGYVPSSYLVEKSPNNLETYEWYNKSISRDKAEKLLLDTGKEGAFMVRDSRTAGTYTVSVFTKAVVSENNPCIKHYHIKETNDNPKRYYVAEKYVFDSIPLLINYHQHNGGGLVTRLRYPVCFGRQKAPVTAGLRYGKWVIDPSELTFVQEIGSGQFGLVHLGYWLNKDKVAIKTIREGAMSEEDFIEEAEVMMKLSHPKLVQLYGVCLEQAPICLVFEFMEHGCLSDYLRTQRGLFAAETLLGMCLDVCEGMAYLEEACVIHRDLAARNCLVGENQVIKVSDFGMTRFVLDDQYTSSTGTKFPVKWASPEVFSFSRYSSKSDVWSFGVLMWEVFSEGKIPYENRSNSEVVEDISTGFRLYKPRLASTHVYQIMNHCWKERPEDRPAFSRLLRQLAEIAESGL", "assay": "Inhibition of ITK (unknown origin) at 0.164 uM relative to control"}, "[15]": {"target": "MAP kinase-activated protein kinase 3 (Homo sapiens) (UniProt Q16644)", "assay": "Inhibition of MAPKAPK3 (unknown origin) at 0.164 uM relative to control"}, "[16]": {"target": "High affinity nerve growth factor receptor (Homo sapiens) (UniProt P04629)", "assay": "Inhibition of TRKA (unknown origin) at 0.164 uM relative to control"}, "[17]": {"target": "Tyrosine-protein kinase FRK (Homo sapiens) (UniProt P42685)", "sequence (P42685 whole entry)": "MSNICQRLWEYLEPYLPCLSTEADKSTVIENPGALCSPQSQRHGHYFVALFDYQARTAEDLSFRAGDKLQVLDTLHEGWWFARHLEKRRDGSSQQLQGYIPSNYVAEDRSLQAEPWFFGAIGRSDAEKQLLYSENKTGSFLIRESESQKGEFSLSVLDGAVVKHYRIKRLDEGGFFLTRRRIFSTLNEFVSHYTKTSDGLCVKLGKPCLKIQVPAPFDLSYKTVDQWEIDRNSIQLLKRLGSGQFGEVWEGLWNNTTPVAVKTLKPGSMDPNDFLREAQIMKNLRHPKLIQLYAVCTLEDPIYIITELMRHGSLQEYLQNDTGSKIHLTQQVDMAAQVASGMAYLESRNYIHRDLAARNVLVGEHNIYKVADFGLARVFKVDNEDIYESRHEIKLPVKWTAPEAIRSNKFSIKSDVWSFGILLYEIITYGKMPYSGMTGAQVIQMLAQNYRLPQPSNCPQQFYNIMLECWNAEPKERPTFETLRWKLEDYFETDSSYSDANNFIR", "assay": "Inhibition of FRK (unknown origin) at 0.164 uM relative to control"}, "[18]": {"target": "AMP-activated protein kinase, AMPK (Homo sapiens) (UniProt P54646+O43741+P54619+Q9UGJ0+Q9Y478+Q13131+Q9UGI9)", "assay": "Inhibition of AMPK (unknown origin) at 0.164 uM relative to control", "assay_type": "protein-complex assay"}, "[19]": {"tested_on": "Tyrosine-protein kinase ABL1 (Homo sapiens), P00519 [Q252H]", "assay": "Inhibition of Abl Q252H mutant (unknown origin) at 0.164 uM relative to control"}, "[20]": {"target": "Calcium/calmodulin-dependent protein kinase type 1 (Homo sapiens) (UniProt Q14012)", "assay": "Inhibition of CaMK1a (unknown origin) at 0.164 uM relative to control"}, "[21]": {"target": "Ephrin type-A receptor 5 (Homo sapiens) (UniProt P54756)", "assay": "Inhibition of EPHA5 (unknown origin) at 0.164 uM relative to control"}, "[22]": {"target": "Phosphorylase b kinase gamma catalytic chain, liver/testis isoform (Homo sapiens) (UniProt P15735)", "assay": "Inhibition of PhKg2 (unknown origin) at 0.164 uM relative to control"}, "[23]": {"tested_on": "Fibroblast growth factor receptor 4 (Homo sapiens), P22455 [V550L]", "assay": "Inhibition of FGFR4 V550L mutant (unknown origin) at 0.164 uM relative to control"}}, "data": [{"smiles": "Cc1n[nH]c(C)c1-c1ccc2c(NC(=O)c3ccc(N4CCN(C)CC4)cc3)n[nH]c2c1", "values": [{"measurement": "inhibition", "setting": "[1]", "result": -0.7, "unit": "%"}, {"measurement": "inhibition", "setting": "[2]", "result": -2, "unit": "%"}, {"measurement": "inhibition", "setting": "[3]", "result": -6.7, "unit": "%"}]}, {"smiles": "Cc1[nH]nc(C2CC2)c1-c1ccc2c(-c3ccc(N4CCN(C)CC4)nc3)n[nH]c2c1", "values": [{"measurement": "inhibition", "setting": "[4]", "result": -1.7, "unit": "%"}, {"measurement": "inhibition", "setting": "[5]", "result": 21.3, "unit": "%"}, {"measurement": "inhibition", "setting": "[6]", "result": -1, "unit": "%"}, {"measurement": "inhibition", "setting": "[7]", "result": 5.3, "unit": "%"}, {"measurement": "inhibition", "setting": "[8]", "result": 72, "unit": "%"}, {"measurement": "inhibition", "setting": "[9]", "result": 40, "unit": "%"}, {"measurement": "inhibition", "setting": "[10]", "result": 20, "unit": "%"}, {"measurement": "inhibition", "setting": "[11]", "result": -3.3, "unit": "%"}, {"measurement": "inhibition", "setting": "[12]", "result": 0.7, "unit": "%"}, {"measurement": "inhibition", "setting": "[13]", "result": -1.7, "unit": "%"}]}, {"smiles": "COC(=O)Nc1cc(-c2c(C3CC3)n[nH]c2C)cc2[nH]ncc12", "values": [{"measurement": "inhibition", "setting": "[14]", "result": 6, "unit": "%"}, {"measurement": "inhibition", "setting": "[15]", "result": 6.3, "unit": "%"}, {"measurement": "inhibition", "setting": "[16]", "result": 1.3, "unit": "%"}, {"measurement": "inhibition", "setting": "[17]", "result": 5, "unit": "%"}, {"measurement": "inhibition", "setting": "[18]", "result": 10.7, "unit": "%"}, {"measurement": "inhibition", "setting": "[19]", "result": 0.3, "unit": "%"}, {"measurement": "inhibition", "setting": "[20]", "result": 3.3, "unit": "%"}, {"measurement": "inhibition", "setting": "[21]", "result": -1, "unit": "%"}, {"measurement": "inhibition", "setting": "[22]", "result": -1.7, "unit": "%"}, {"measurement": "inhibition", "setting": "[23]", "result": 1.7, "unit": "%"}]}]}
